Data as given in patent publication US11633497B2, “Anti-c-Met antibody drug conjugates” (AbbVie Inc., priority 2021, dated 2023).
Read-outs that look alike come from different tables or passages of the source.

What was measured:
[1] = tested on: Calu-6 cells (lung adenocarcinoma); assay: Cell proliferation, CellTiter-Glo luminescence, Calu-6; assay type: cell-based; conditions: Homo sapiens
Description: The effect of TOP1i drugs on cell viability was assessed by monitoring ATP presence for metabolically active cells. Proliferation of Calu-6 cells (lung adenocarcinoma) and A375 cells (malignant melanoma) were quantified using CellTiter-Glo® luminescence.

[2] = tested on: A375 cells (malignant melanoma); assay: Cell proliferation, CellTiter-Glo luminescence, A375; assay type: cell-based; conditions: Homo sapiens, A-375, read-out: TOP1i Compound Potency EC50, A375
Source text: Proliferation of Calu-6 cells (lung adenocarcinoma) and A375 cells (malignant melanoma) were quantified using CellTiter-Glo® luminescence.

Row | EC50 ([1]; Calu-6 cell viability, CellTiter-Glo, read-out: TOP1i Compound Potency EC50, Calu-6) | Structure (SMILES) | EC50 [2] | EC50 ([1]; Calu-6, read-out: TOP1i Compound Potency EC50, Calu-6)
1 | 6.58 nM | CCc1c2c(nc3ccc(O)cc13)-c1cc3c(c(=O)n1C2)COC(=O)[C@]3(O)CC [SN-38, reference compound] |  | 
2 |  | CC[C@@]1(O)C(=O)OCc2c1cc1n(c2=O)Cc2c-1nc1cc3c(cc1c2C12CC(N)(C1)C2)OCO3 [Example 1G, (7S)-14-(3-aminobicyclo[1.1.1]pentan-1-yl)-7-ethyl-7-hydroxy-2H,10H-[1,3]dioxolo[4,5-g]pyrano[3′,4′:6,7]indolizino[1,2-b]quinoline-8,11(7H,13H)-dione] | 0.5 nM | 0.57 nM
